Reference: the supplement of paper PMC10307832

Experiments:
Assay in all cases: relative viability (nuclei count vs DMSO), 5 days (fraction); higher = more cells survive
[1] = compound: O=S(=O)(c1ccccc1)N(CC(F)(F)F)c1ccc(C(O)(C(F)(F)F)C(F)(F)F)cc1 + CC(=O)c1c(C)c2cnc(Nc3ccc(N4CCNCC4)cn3)nc2n(C2CCCC2)c1=O [Palbociclib] (partner 0.5 µM)
Method in brief: (§1)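 The day after seeding in 1536-well plates, lung cancer cell lines were treated by pin tool with a single drug, or with a fixed anchor-drug dose together with five library-drug doses (not always all listed) in √10 steps. After 5 days, a combined fix-and-stain solution (final 0.05% Triton X-100, 1% formaldehyde, 1 ug/ml Hoechst) was added. Nuclei counted on 4× images gave relative viability as treated counts over vehicle counts, reported as the median of duplicate plates.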

[2] = compound: O=S(=O)(c1ccccc1)N(CC(F)(F)F)c1ccc(C(O)(C(F)(F)F)C(F)(F)F)cc1 + NC(=O)Nc1cc(-c2cccc(F)c2)sc1C(=O)N[C@H]1CCCNC1 [AZD7762] (partner 0.2 µM)
Method in brief: as §1

[3] = compound: O=S(=O)(c1ccccc1)N(CC(F)(F)F)c1ccc(C(O)(C(F)(F)F)C(F)(F)F)cc1 + CC1(C)CCC(c2ccc(Cl)cc2)=C(CN2CCN(c3ccc(C(=O)NS(=O)(=O)c4ccc(N[C@H](CCN5CCOCC5)CSc5ccccc5)c(S(=O)(=O)C(F)(F)F)c4)cc3)CC2)C1 [Navitoclax] (partner 0.5 µM)
Method in brief: as §1

RO-3306 + Palbociclib = compound: C1=CC2=C(C=CC(=C2)C=C3C(=O)NC(=NCC4=CC=CS4)S3)N=C1 [RO-3306] + CC(=O)c1c(C)c2cnc(Nc3ccc(N4CCNCC4)cn3)nc2n(C2CCCC2)c1=O [Palbociclib] (partner 0.5 µM)
Method in brief: as §1

[4] = compound: O=S(=O)(c1ccccc1)N(CC(F)(F)F)c1ccc(C(O)(C(F)(F)F)C(F)(F)F)cc1 + N=C(N)NC(=N)NCCc1ccccc1 [Phenformin] (partner 250 µM)
Method in brief: as §1

[5] = compound: O=S(=O)(c1ccccc1)N(CC(F)(F)F)c1ccc(C(O)(C(F)(F)F)C(F)(F)F)cc1 + C[C@]1(O)C[C@@H](c2nc(-c3ccc4ccc(-c5ccccc5)nc4c3)c3c(N)nccn32)C1 [Linsitinib] (partner 1 µM)
Method in brief: as §1

Cell Line	relative viability ([1]; first compound 0.8 µM)	relative viability ([1]; first compound 2.53 µM)	relative viability ([1]; first compound 8 µM)	relative viability ([2]; first compound 0.8 µM)	relative viability ([2]; first compound 2.53 µM)	relative viability ([2]; first compound 8 µM)	relative viability ([3]; first compound 0.8 µM)	relative viability ([3]; first compound 2.53 µM)	relative viability ([3]; first compound 8 µM)	relative viability (RO-3306 + Palbociclib; first compound 0.01 µM)	relative viability (RO-3306 + Palbociclib; first compound 0.03162 µM)	relative viability (RO-3306 + Palbociclib; first compound 0.1 µM)	relative viability (RO-3306 + Palbociclib; first compound 0.3162 µM)	relative viability (RO-3306 + Palbociclib; first compound 1 µM)	relative viability ([4]; first compound 0.8 µM)	relative viability ([4]; first compound 2.53 µM)	relative viability ([4]; first compound 8 µM)	relative viability ([5]; first compound 0.8 µM)	relative viability ([5]; first compound 2.53 µM)	relative viability ([5]; first compound 8 µM)
NCI-H647	0.329	0.305	0.408	0.483	0.388	0.535	1.3	1.26	1.01	0.486	0.325	0.355	0.474	0.446	0.502	0.552	0.455	1.31	1.07	1.16
NCI-H727	0.621	0.623	0.618	0.549	0.604	0.526	0.387	0.407	0.507	0.623	0.613	0.552	0.557	0.604	0.568	0.378	0.469	0.279	0.376	0.212
NCI-H838	0.241	0.244	0.276	0.998	0.894	0.871	1.3	1.25	1.09	0.228	0.211	0.254	0.254	0.193	0.656	0.56	0.627	1.13	1.04	0.97
NCI-H1355	0.377	0.42	0.359	0.789	0.733	0.703	1.09	0.754	0.826	0.421	0.406	0.405	0.412	0.38	0.467	0.397	0.438	0.762	0.65	0.598
NCI-H1395	0.642	0.627	0.603	0.319	0.416	0.429	1.01	1.06	1.31	0.696	0.678	0.58	0.641	0.558	0.438	0.465	0.482	1.23	1.05	1.21
NCI-H1437	0.308	0.268	0.304	1.08	0.995	0.849	1.04	0.859	0.893	0.312	0.316	0.294	0.317	0.289	0.297	0.239	0.342	1.07	0.859	0.893
NCI-H1651	0.555	0.503	0.5	0.471	0.449	0.39	1.15	0.939	1.02	0.542	0.456	0.505	0.538	0.496	0.358	0.292	0.268	1.04	0.901	1.02
NCI-H1666	0.645	0.657	0.601	0.806	0.76	0.716	0.756	0.882	0.99	0.734	0.631	0.603	0.616	0.609	0.537	0.541	0.511	0.788	0.703	0.78
NCI-H1734	0.348	0.363	0.326	0.617	0.67	0.343	1.14	0.809	0.801	0.39	0.321	0.333	0.429	0.34	0.562	0.45	0.354	1.04	0.883	0.932
NCI-H1755	0.471	0.46	0.464	0.468	0.421	0.485	1.01	0.909	0.924	0.421	0.474	0.48	0.417	0.45	0.638	0.614	0.569	1.01	0.98	0.995
NCI-H1792	0.614	0.549	0.453	0.841	0.616	0.441	0.798	0.559	0.474	0.688	–	0.653	0.708	0.698	0.305	0.267	0.204	0.396	0.392	0.22
NCI-H1793	0.258	0.22	0.258	0.409	0.426	0.246	0.471	0.261	0.301	0.222	–	0.279	0.296	0.388	0.447	0.332	0.285	0.836	0.641	0.66
NCI-H1915	0.46	0.577	0.525	0.712	0.731	0.682	0.881	0.81	0.786	0.54	0.523	0.518	0.539	0.538	0.373	0.309	0.408	1.14	1.03	1.06
NCI-H1944	0.342	0.303	0.332	0.546	0.501	0.581	1.03	1	1.04	0.336	0.339	0.34	0.333	0.333	0.209	0.19	0.197	1.25	1.08	1.13
NCI-H1975	0.71	0.567	0.644	0.632	0.519	0.669	1.29	1.11	1.12	0.614	0.453	0.581	0.549	0.553	0.452	0.439	0.414	1.09	1.16	0.88
